| Compound | logP |
| --- | --- |
| Oc1cccc2cccnc12 | 1.93 |
| COC(=O)c1ccccc1S(=O)(=O)NC(=O)Nc1nc(OC(F)F)cc(OC(F)F)n1 | 3.49 |
| CC(C)(C)C(=O)C(Oc1ccc(Cl)cc1)n1cncn1 (stereo not drawn) | 3.11 |
| Cc1ccc(CO)cc1 | 1.62 |
| CCCC1COC(Cn2cncn2)(c2ccc(Cl)cc2Cl)O1 (stereo not drawn) | 3.57 |
| C#CC(C)(C)NC(=O)c1cc(Cl)cc(Cl)c1 | 3.23 |
| CCc1cccc(C)c1N(C(=O)CCl)C(C)COC (stereo not drawn) | 3.01 |
| OC(Cn1cncn1)(c1ccc(F)cc1)c1ccccc1F (stereo not drawn) | 2.26 |
| CC(C1CC1)C(O)(Cn1cncn1)c1ccc(Cl)cc1 (stereo not drawn) | 2.99 |
| CC(C)N1C(=O)N(c2ccccc2)CSC1=NC(C)(C)C | 4.92 |
| CCSC(=O)N(CC(C)C)CC(C)C | 4.1 |
| Cc1cccc2sc3nncn3c12 | 1.42 |
| N#Cc1c(Cl)c(Cl)c(Cl)c(C#N)c1Cl | 2.93 |
| CCCC(=O)c1ccccc1 | 2.68 |
| c1ccc(-c2ccncn2)cc1 | 1.9 |
| CCCN(CCOc1c(Cl)cc(Cl)cc1Cl)C(=O)n1ccnc1 | 4.02 |
| COC(=O)NCc1cc(/C(C)=N/OCc2cccc(C)n2)ccc1Cl | 3.64 |
| Cc1cc(C(F)(F)F)nn1CC(=O)N1CCC(c2nc(C3=NOC(c4c(F)cccc4F)C3)cs2)CC1 (stereo not drawn) | 3.6 |
| O=[N+]([O-])c1c(Cl)c(Cl)cc(Cl)c1Cl | 4.28 |
| CS(=O)(=O)c1ccc(C(=O)C2C(=O)CCCC2=O)c(Cl)c1COCC(F)(F)F | 2.15 |
| c1ccc2ccccc2c1 | 3.37 |
| N#Cc1c[nH]cc1-c1cccc2c1OC(F)(F)O2 | 4.16 |
| CC(C)CC(C)c1sccc1NC(=O)c1cn(C)nc1C(F)(F)F (stereo not drawn) | 3.96 |

| Compound | logP |
| --- | --- |
| CCNc1nc(Cl)nc(NCC)n1 | 2.09 |
| N#CN=C1SCCN1Cc1ccc(Cl)nc1 | 1.26 |
| CCCCc1c(C)nc(NCC)[nH]c1=O | 2.23 |
| C=CCN(CC=C)C(=O)C(Cl)Cl | 1.77 |
| CC1(C)CCC(Cc2ccc(Cl)cc2)C1(O)Cn1cncn1 (stereo not drawn) | 3.82 |
| COC(=O)c1ccccc1CS(=O)(=O)NC(=O)Nc1nc(OC)cc(OC)n1 | 2.36 |
| Cc1ccc(NC(=O)N(C)C)cc1Cl | 2.43 |
| C[Si](Cn1cncn1)(c1ccc(F)cc1)c1ccc(F)cc1 | 3.76 |
| O=C(O)COc1ccc(Cl)cc1Cl | 2.66 |
| CS(=O)(=O)c1ccc(C(=O)C2C(=O)CCCC2=O)c([N+](=O)[O-])c1 | 0.9 |
| CC1=CC(=O)CC(C)(C)[C@@]1(O)/C=C/C(C)=C\C(=O)O | 1.71 |
| CCOC(=O)c1ccc([N+](=O)[O-])cc1 | 2.43 |
| CO/C=C(/C(=O)OC)c1ccccc1Oc1cc(Oc2ccccc2C#N)ncn1 | 2.53 |
| O=c1c2cc(F)ccc2nc(-n2cncn2)n1-c1ccc(Cl)cc1Cl | 3.21 |
| Cn1cc(C(=O)Nc2cccc3c2[C@@H]2CC[C@H]3C2=C(Cl)Cl)c(C(F)F)n1 | 4.34 |
| Cc1cc(C)nc(Nc2ccccc2)n1 | 2.84 |
| CC1=C(C(=O)Nc2ccccc2)SCCO1 | 2.08 |
| CCNc1nc(Cl)nc(NC(C)C)n1 | 2.54 |
| COC(=O)c1ccc(Cl)cc1 | 2.81 |
| COc1cc(OC)nc(NC(=O)NS(=O)(=O)c2ncccc2OCC(F)(F)F)n1 | 1.85 |
| COc1c(Cl)ccc(Cl)c1C(=O)O | 2.52 |
| CNC(=O)Nc1ccc(C(=O)O)cc1 | 1.16 |
| COC(=O)C(C)Oc1ccc(Oc2ccc(Cl)cc2Cl)cc1 (stereo not drawn) | 4.89 |

| Compound | logP |
| --- | --- |
| N#Cc1cc(Br)c(O)c(Br)c1 | 2.9 |
| CCOC(=O)C1CC(=O)C(=C(O)C2CC2)C(=O)C1 (stereo not drawn) | 2.02 |
| N#Cc1cnc2ccccc2c1 | 1.64 |
| FC(F)C(F)(F)OCC(Cn1cncn1)c1ccc(Cl)cc1Cl (stereo not drawn) | 3.49 |
| CS(=O)(=O)c1ccccc1 | 0.51 |
| CCCCCOC(=O)C(C)Oc1ccc(Oc2ccc(C(F)(F)F)cn2)cc1 (stereo not drawn) | 5.6 |
| c1ccc(Sc2ccccc2)cc1 | 4.43 |
| CC(C)(C)C(O)(CCc1ccc(Cl)cc1)Cn1cncn1 (stereo not drawn) | 3.59 |
| COC(=O)N(C(=O)N1CO[C@@]2(C(=O)OC)Cc3cc(Cl)ccc3C2=N1)c1ccc(OC(F)(F)F)cc1 | 4.75 |
| CCCCn1nnc2ccccc21 | 2.52 |
| CO/N=C(/C1=NOCCO1)c1ccccc1Oc1ncnc(Oc2ccccc2Cl)c1F | 2.95 |
| CCOC(=O)c1cccnc1 | 1.38 |
| Cc1cc(C2CC2)nc(Nc2ccccc2)n1 | 3.91 |
| CCCCOC(=O)C(C)Oc1ccc(Oc2ccc(C(F)(F)F)cn2)cc1 (stereo not drawn) | 5.01 |
| C[C@@H](Oc1ccc(Oc2ccc(C#N)cc2F)cc1)C(=O)O | 3.08 |
| CC(C)N1C(=O)c2ccccc2NS1(=O)=O | 2.75 |
| CC(C)(C)N(NC(=O)c1ccccc1)C(=O)c1ccccc1 | 2.43 |
| CSc1nnc(C(C)(C)C)c(=O)n1N | 1.61 |
| CC(C)N(C(=O)CCl)c1ccccc1 | 2.12 |
| CCOc1cc(Oc2ccc(C(F)(F)F)cc2Cl)ccc1[N+](=O)[O-] | 5.19 |
| CCC(=O)c1ccccc1 | 2.16 |
| Cc1[nH]n(C)c(=O)c1C(=O)c1ccc(C(F)(F)F)cc1S(C)(=O)=O | 0.63 |
| CCCOC(=O)C(C)Oc1ccc(Oc2ccc(C(F)(F)F)cn2)cc1 (stereo not drawn) | 4.44 |

| Compound | logP |
| --- | --- |
| CC(C)Oc1cccc(NC(=O)c2ccccc2C(F)(F)F)c1 | 3.59 |
| c1ccc(-c2ccccc2)cc1 | 3.96 |
| Nc1cc(Cl)cc(Cl)c1 | 2.89 |
| Fc1ccc(Oc2ccnc3cc(Cl)cc(Cl)c23)cc1 | 5.27 |
| COCC(=O)N(c1c(C)cccc1C)C(C)C(=O)OC (stereo not drawn) | 1.6 |
| CC(=O)Nc1ccccn1 | 0.56 |
| O=[N+]([O-])c1ccccc1 | 1.79 |
| CC(C)N(Cc1ccccc1)C(=O)C(C)(C)C | 2.98 |
| CNC(=O)Oc1cccc2c1OC(C)(C)C2 | 1.59 |
| COc1nc(C)nc(NC(=O)NS(=O)(=O)c2ccccc2CCC(F)(F)F)n1 | 2.87 |
| CNC(=O)Oc1ccccc1OC(C)C | 1.55 |
| O=Cc1cccc(Oc2ccccc2)c1 | 3.32 |
| CC1(c2ccc(Oc3ccccc3)cc2)OC(=O)N(Nc2ccccc2)C1=O (stereo not drawn) | 4.78 |
| CON(C(=O)c1cn(C)nc1C(F)F)C(C)Cc1c(Cl)cc(Cl)cc1Cl (stereo not drawn) | 3.77 |
| c1ccc(Oc2ccccn2)cc1 | 2.36 |
| COC(=O)c1ccccc1C(=O)OC | 1.49 |
| CN(C)C(=O)Nc1cc(C(C)(C)C)on1 | 1.91 |
| CO/N=C(/C(=O)OC)c1ccccc1CO/N=C(\C)c1cccc(C(F)(F)F)c1 | 4.45 |
| O=C(CCl)Nc1ccccc1 | 1.54 |
| CC(Oc1ccc(Oc2ccc(Cl)cc2Cl)cc1)C(=O)O (stereo not drawn) | 4.69 |
| CCCCC(O)(Cn1cncn1)c1ccc(Cl)cc1Cl (stereo not drawn) | 3.8 |
| c1ccc(-c2ccccn2)nc1 | 1.72 |
| Nc1c(Cl)cccc1Cl | 2.75 |

| Compound | logP |
| --- | --- |
| CCN1C(=O)C(=O)c2ccc(OC)cc2C1=O | 1.4 |
| Fc1ccc([C@@]2(Cn3cncn3)O[C@@H]2c2ccccc2Cl)cc1 | 3.3 |
| O=[N+]([O-])c1ccc(Oc2ccccc2)cc1 | 3.66 |
| COP(=S)(OC)SCN1C(=O)c2ccccc2C1=O | 2.71 |
| CC(=NC#N)N(C)Cc1ccc(Cl)nc1 | 0.82 |
| O=C(NCCc1ncc(C(F)(F)F)cc1Cl)c1ccccc1C(F)(F)F | 3.26 |
| CO/C=C(/C(=O)OC)c1ccccc1COc1cc(C(F)(F)F)nc(OC(C)C)n1 | 4.18 |
| COC(=O)C(C)N(C(=O)c1ccco1)c1c(C)cccc1C (stereo not drawn) | 2.59 |
| CC(C)N(C)S(=O)(=O)NC(=O)c1cc(-n2c(=O)cc(C(F)(F)F)n(C)c2=O)c(F)cc1Cl | 2.33 |
| Cc1nc(N(C)C)nc(OC(=O)N(C)C)c1C | 1.75 |
| Nc1ccc(C(F)(F)F)cc1 | 2.31 |
| CS(=O)(=O)c1ccc(C(=O)C2C(=O)CCCC2=O)c(Cl)c1 | 1.2 |
| COc1nc(C)nc(NC(=O)NS(=O)(=O)c2ccccc2OCCCl)n1 | 1.72 |
| CC(C)(C)[C@H](O)[C@H](Cc1ccc(Cl)cc1)n1cncn1 | 3.09 |
| CCON=C(CC)C1=C(O)CC(c2c(C)cc(C)cc2C)CC1=O (stereo not drawn) | 4.77 |
| Cc1cc(Cl)ccc1OCC(=O)O | 2.79 |
| CN(C)C(=O)Nc1ccc(Cl)c(Cl)c1 | 2.74 |
| c1ccc2[nH]ccc2c1 | 2.15 |
| COC(=O)Cc1ccccc1 | 1.75 |
| CCOC(=O)C(C)Oc1ccc(Oc2ccc(C(F)(F)F)cn2)cc1 (stereo not drawn) | 3.9 |
| O=C1CC(C(=O)O)CC(=O)C1=C(O)C1CC1 (stereo not drawn) | 1.42 |
| COC(=O)c1cc(Oc2ccc(Cl)cc2Cl)ccc1[N+](=O)[O-] | 4.53 |
| CCCCOC(=O)c1ccccc1C(=O)OCCCC | 4.46 |

| Compound | logP |
| --- | --- |
| O=[N+]([O-])C=C1CCCN1Cc1ccc(Cl)nc1 | 0.7 |
| CC(=O)Nc1ccccc1C(F)(F)F | 1.14 |
| CC(=O)Nc1cccnc1 | 0.38 |
| CCCCC(C#N)(Cn1cncn1)c1ccc(Cl)cc1 (stereo not drawn) | 3.06 |
| CCOCn1c(-c2ccc(Cl)cc2)c(C#N)c(Br)c1C(F)(F)F | 5.24 |
| CC(C)(C)C(O)C(Cc1ccc(Cl)cc1Cl)n1cncn1 (stereo not drawn) | 3.69 |
| CC1COC(Cn2cncn2)(c2ccc(Oc3ccc(Cl)cc3)cc2Cl)O1 (stereo not drawn) | 4.24 |
| c1ccc(-c2ccc(C(c3ccccc3)n3ccnc3)cc2)cc1 (stereo not drawn) | 5.12 |
| CCN(CC)C(=O)C(C)Oc1cccc2ccccc12 (stereo not drawn) | 3.22 |
| CCCC(=O)c1c(C)cc(C)c(C2CC(=O)C(/C(CC)=N/OCC)=C(O)C2)c1C (stereo not drawn) | 4.74 |
| CNC(=O)Nc1ccc(S(=O)(=O)NC(=O)c2ccccc2OC)cc1 | 1.95 |
| COC(=O)C=Cc1ccccc1 | 2.67 |
| Nc1ccc(Cl)c(Cl)c1 | 2.62 |
| c1ccc2[nH]cnc2c1 | 1.29 |
| C[C@@H](Oc1ccc(Oc2ccc(C(F)(F)F)cn2)cc1)C(=O)O | 3.21 |
| C#CCOc1ccc(CCNC(=O)C(OCC#C)c2ccc(Cl)cc2)cc1OC (stereo not drawn) | 3.16 |
| c1ccc2c(c1)Nc1ccccc1S2 | 4.08 |
| Cc1cc(C)nc(NC(=O)NS(=O)(=O)c2ccccc2C(=O)OC2COC2)n1 | 1.07 |
